Test results from US20130190370A1, “Novel Tetrahydronaphalene Antagonists to the Thromboxane A2 (TP) Receptor” (The Trustees of the University of Pennsylvania, priority 2010, published 2013).

Experiments:
[1] = Brain and plasma compound levels by LC-MS/MS after 5 mg/kg i.p. injection into mice
Protocol: One-month old B6C3HF1 female mice were given intraperitoneal injections of compounds at 5 mg/kg. 1 hour after injection, mice were lethally anesthetized with an intraperitoneal injection of ketamine hydrochloride (1 mg/10 g) and xylazine (0.1 mg/10 g) and perfused intracardially with PBS in accordance with protocols approved by the University of Pennsylvania.
Brain samples were homogenized in 10 mM ammonium acetate, pH 5.7 (1:2; w/v) using a handheld sonic homogenizer. Compound from 50 μL of brain homogenate or plasma was extracted with 200 μL acetonitrile, centrifuged, and the supernatant removed for LC/MS/MS analysis. Compounds were detected using multiple reaction monitoring (MRM) of their specific collision-induced ion transitions and quantified using peak areas.
The LC/MS/MS system was comprised of an Agility UPLC, a TQ MS, and controlled using MassLynx software (Waters Corporation, Milford, Mass., USA). Samples were separated on an Aquity BEH C18 column (1.7 μm, 2.1×50 mm) at 35° C. For operation in positive electrospray ionization mode, the mobile phase A was 0.1% (v/v) formic acid, and B was either acetonitrile or methanol with 0.1% (v/v) formic acid. For operation in negative electrospray ionization mode, the mobile phase A was 10 mM ammonium acetate, and B was methanol with 10 mM ammonium acetate, Injections of 5 μL were separated at a flow rate of 0.6 mL/min using a gradient from 5% to 95% B over two minutes followed by wash and re-equilibration steps.
The MS was operated with a desolvation temperature of 450° C. and a source temperature of 150° C. Desolvation and source nitrogen gas flows were 900 L/hr and 50 L/hr, respectively. Collision cell argon gas flow was 0.1 mL/min. Source and analyzer voltages were optimized for each compound using the MassLynx auto tune utility. Compound standards at 1000 ng/mL in 50% acetonitrile were infused at 30 μL/min and combined with flow from the UPLC at 0.6 mL/min and 50% B.
Standard curves were generated from spiked brain homogenate and plasma prepared at 4, 40, 400 and 4000 ng/mL and extracted as above. Peak area was plotted versus concentration and a 1/x weighted linear regression curve was used to quantify the unknowns using the average peak area from triplicate injections,
The following experiments were designed to analyze TP receptor antagonists to determine their relative BBB penetration. The TP receptor antagonists were administered via i.p. injection at 5 mg/kg to normal mice, and brain and plasma compound concentrations were assessed by LC-MS/MS at 1 and 4 hours after dosing.
To examine the blood-brain barrier permeability of these compounds, one-month old B6C3F1 mice were injected at 5 mg/kg and sacrificed 1 hour after injection.

[2] = Pro-drug study: plasma levels of compound and carboxylic acid hydrolysis product (51280) by LC-MS/MS; format: in vivo; settings: female mice, 5 mg/kg, 1 h after injection
Protocol: Ester and amide examples can serve as pro-drugs to release the potent carboxylic acid TP receptor antagonist CNDR-51280. Compounds in were administered at 5 mg/kg to female mice, and levels of the compound and the carboxylic acid hydrolysis product (51280) were evaluated by LC-MS/MS 1 h after injection (Table 3).

mouse TP receptor = biological target: T1, mouse TP receptor (Mus musculus, UniProt P30987); experiment: Radioligand binding assay (3H-SQ29,548), mouse TP receptor; settings: mTP receptor
T1 construct: expressed in transfected cells
T1 sequence (P30987 1-341): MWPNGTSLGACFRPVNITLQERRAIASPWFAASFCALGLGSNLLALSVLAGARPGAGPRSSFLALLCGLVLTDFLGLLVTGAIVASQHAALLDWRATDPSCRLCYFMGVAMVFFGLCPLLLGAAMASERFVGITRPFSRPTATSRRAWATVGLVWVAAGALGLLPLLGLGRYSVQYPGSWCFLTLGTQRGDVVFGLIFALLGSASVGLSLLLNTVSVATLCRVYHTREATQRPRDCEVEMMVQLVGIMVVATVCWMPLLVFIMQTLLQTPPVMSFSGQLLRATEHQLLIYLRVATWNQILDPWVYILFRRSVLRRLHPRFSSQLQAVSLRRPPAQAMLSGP
Protocol: (§1) QBI-HEK 293A cells expressing human or mouse TxA2 (TP) receptor were grown as described previously and harvested in phosphate-buffered saline with 1 mM EDTA. The cell pellet was homogenized in a glass homogenizer in 20 mM Hepes, 1 mM EGTA, 0.5 mM DTT with protease inhibitor cocktail. The homogenate was initially centrifuged at 1000×g for 10 minutes at 8° C. to remove cell debris. The homogenate was then centrifuged in a Beckman L8-70M ultracentrifuge (Beckman-Coulter, Brea, Calif., USA) at 21,000 rpm for 30 minutes at 4° C., and the pellet was resuspended in 20 mM Hepes, 1 mM EGTA, 100 mM NaCl. Membrane preparations were normalized to protein level as determined with a BCA assay (ThermoFisher, Rockland, Ill.) and stored at −80° C.
(§2) Test antagonists were incubated at 10 different concentrations with 25 μg membrane and 25 nM ^3H-SQ29,548 (PerkinElmer, Waltham, Mass., USA) in 50 mM Tris, 4 mM CaCl2, 0.1% ascorbic acid pH 7.5 for 2 hours at 25° C. in 96-well polystyrene plates. Separation of bound from free radioligand was accomplished by rapid vacuum filtration onto 96-well GF/B filter plates (PerkinElmer, Waltham, Mass., USA). Filters were washed 8 times in 50 mM Tris, pH 6.9 and allowed to dry for 16 hours, Plates were sealed and filters dissolved in 50 μL Betaplate Scintillation fluid (PerkinElmer, Waltham, Mass., USA) and read on a scintillation counter. Data are presented as percent total binding as calculated by a minimum of 3 wells containing membrane and ^3H-SQ29,548 without antagonist.
(§3) Equilibrium dissociation constants (Kd), IC50, and Schild regression analyses was performed with GraphPad Prism software (GraphPad Software Inc., La Jolla, Calif., USA).
(§4) To facilitate the characterization of the new compounds, cell-based TP receptor functional assays were optimized. HEK293 clones have been produced that stably express the human (hTP) or mouse (mTP) TP receptor (a isoform), and treatment of these clones with I-BOP ([1S-[1α,2α(Z),3β(1E,3S*),4α]]-7-[3-[3-hydroxy-4-(4-iodophenoxy)-1-butenyl]-7-oxabicyclo[2.2.1]hept-2-yl]-5-heptenoic acid) results in increased production of inositol triphosphate (IP3) (Knezevic, et al., 1993, Blood 82:A156; Shenker, et al., 1991, J Biol Chem 266:9309-9313; Huang, et al., 2004, Cell Signal 16:521-533) which can be quantified by measuring the breakdown product, inositol monophosphates (IP1), using a commercial time-resolved fluorescence assay. […] A radioligand binding assay was also developed to allow for the determination of binding affinities of compounds at the hTP and mTP receptors.

human TP receptor = biological target: T2, human TP receptor (Homo sapiens, UniProt P21731); experiment: Radioligand binding assay (3H-SQ29,548), human TP receptor; settings: hTP receptor
T2 construct: expressed in transfected cells
T2 sequence (P21731 1-343): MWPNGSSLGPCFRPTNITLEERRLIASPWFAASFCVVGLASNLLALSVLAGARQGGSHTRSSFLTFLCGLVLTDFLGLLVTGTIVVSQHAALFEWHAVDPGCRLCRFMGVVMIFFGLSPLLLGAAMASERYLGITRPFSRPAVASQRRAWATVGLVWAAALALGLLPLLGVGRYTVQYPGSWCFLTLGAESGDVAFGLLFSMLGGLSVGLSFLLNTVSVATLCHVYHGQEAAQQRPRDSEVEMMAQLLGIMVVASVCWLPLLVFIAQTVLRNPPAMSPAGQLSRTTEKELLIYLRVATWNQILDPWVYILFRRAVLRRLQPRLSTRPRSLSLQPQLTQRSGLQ
Protocol: as §1, §2, §3, §4

[3] = Unbound fractions in plasma and brain homogenates by equilibrium dialysis; format: in vitro ADME
Source text: Without wishing to be bound by any particular theory, it is believed that it is possible (although uncommon) for a BBB-permeable compound to have a very low B/P ratio if the fraction of free, unbound drug is much greater in the […]. More specifically, a drug that is freely diffusible across the BBB will at equilibrium have a free drug B/P ratio (B/Pfree)=1, where B/Pfree=B/P×fu(brain))/fu(plasma) (Maurer, et al., 2005, Drug Metab Dispos. 33:175-181; Kalvasset al., 2007, Drug Metab Dispos. 35:660-666) and fti represents unbound drug fractions. […] To ensure that the low B/P ratios obtained with the TP antagonists of Table 1 were truly reflective of poor BBB permeability, the unbound fractions in plasma and brain homogenates were measured using established equilibrium dialysis methods (Maurer, et al., 2005, Drug Metab Dispos. 33:175-181; Kalvasset al., 2007, Drug Metab Dispos. 35:660-666; Friden, et al., 2007, Drug Metab Dispos. 35:1711-1719). […] This is further illustrated by comparing the calculated B/Pfree ratios (Table 1), which are <<1. Because the existing repertoire of TP receptor antagonists share common structural features, including free carboxylate moieties, it is highly unlikely that any of these existing compounds would be sufficiently brain-penetrant to be potential AD therapeutics.

[4] = female, B6C3HF1, mouse, brain/plasma (unbound), ip, 5 mg/kg
[5] = female, B6C3HF1, mouse, brain/plasma, ip, 5 mg/kg
[6] = mice, 5 mg/kg i.p., 1 h after dosing
[7] = mice, 5 mg/kg i.p., 4 h after dosing

Compound: O=S(=O)(NC1CCc2c(CCC3OCCO3)cccc2C1)c1ccc(Cl)cc1 (centres unmarked) [Compound 51414]
- brain penetration / brain levels of the drug ([1]; B6C3F1 mice, 5 mg/kg, 1 hour after injection; 5 mg/kg): greatly increased brain levels of the drug
- brain penetration / brain levels of the drug ([1]; B6C3F1 mice, 5 mg/kg, 1 hour after injection; listed as CNDR-51414, 5 mg/kg): brain-penetrant

Compound: O=C(CCc1cccc2c1CCC(NS(=O)(=O)c1ccc(Cl)cc1)C2)NCC(F)(F)F (centres unmarked) [Compound 51418, 3-(6-(4-Chlorophenylsullfonamido)-5,6,7,8-tetrahydronaphthalen-1-yl)-N-(2,2,2-trifluoroethyl)-propanamide]
- Plasma (compound) [2]: 109 (+/− 45) nM
- XCOOH Plasma (carboxylic acid hydrolysis product 51280) [2]: 100 (+/− 43) nM
- affinity for TP receptor (mouse TP receptor): most tolerable substitutions
- affinity for TP receptor (human TP receptor): most tolerable substitutions

Compound: O=S(=O)(NC1CCc2c(CCc3nn[nH]n3)cccc2C1)c1ccc(Cl)cc1 (centres unmarked) [Compound 51279, N-(5-(2-(2H-Tetrazol-5-yl)ethyl)-1,2,3,4-tetrahydronaphthalen-2-yl)-4-chlorobenzenesulfonamide]
- affinity for TP receptor (mouse TP receptor): most tolerable substitutions
- affinity for TP receptor (mouse TP receptor; listed as CNDR-51279): well tolerated
- affinity for TP receptor (human TP receptor): most tolerable substitutions
- affinity for TP receptor (human TP receptor; listed as CNDR-51279): well tolerated
- brain penetration / brain levels of the drug ([1]; B6C3F1 mice, 5 mg/kg, 1 hour after injection): very little brain penetration

Compound: O=C(O)Cc1ccc(CCNS(=O)(=O)c2ccc(Cl)cc2)cc1 [Daltroban]
- fraction unbound ([3]; brain homogenate, equilibrium dialysis, read-out: fu(brain) (fraction unbound)): 0.221
- plasma/brain unbound fraction ratio ([3]; plasma and brain homogenate, ratio of unbound fractions plasma/brain, read-out: fu(pl)/fu(br)): 0.52
- concentration at 1 h ([1]; female, B6C3HF1, mouse, brain, ip, 5 mg/kg, Brain, mice, 5 mg/kg i.p., 1 h after dosing): 133 ng/mL
- concentration at 4 h ([1]; female, B6C3HF1, mouse, brain, ip, 5 mg/kg, Brain, mice, 5 mg/kg i.p., 4 h after dosing): 55.9 ng/mL
- Kp at 1 h [1, 4]: 0.04
- Kp at 4 h [1, 4]: 0.06
- Kp at 1 h [1, 5]: 0.02
- Kp at 4 h [1, 5]: 0.03
- concentration at 1 h ([1]; female, B6C3HF1, mouse, plasma, ip, 5 mg/kg, Plasma, mice, 5 mg/kg i.p., 1 h after dosing): 6450 ng/mL
- concentration at 4 h ([1]; female, B6C3HF1, mouse, plasma, ip, 5 mg/kg, Plasma, mice, 5 mg/kg i.p., 4 h after dosing): 1790 ng/mL

Compound: CCCCCNC(=O)NS(=O)(=O)c1cc([N+](=O)[O-])ccc1NC1CCCCC1 [BM567]
- fu(plasma) (fraction unbound) ([3]; plasma, equilibrium dialysis): 0.004 +/− 0.001
- fu(pl)/fu(br) ([3]; ratio of unbound fractions plasma/brain): 0.20
- B/P (brain-to-plasma ratio) ([1]; mice, 5 mg/kg i.p., 1 h): 0.01
- Brain [1, 6]: 40.2 ± 12.3 ng/mL
- Plasma [1, 6]: 3600 ± 923 ng/mL
- B/P (brain-to-plasma ratio) ([1]; mice, 5 mg/kg i.p., 4 h): 0.01
- Brain [1, 7]: 18.5 ± 7.8 ng/mL
- Plasma [1, 7]: 2248 ± 1400 ng/mL
